Test results taken from patent US20250382657A1, “METHODS FOR MAPPING BINDING SITES OF COMPOUNDS” (Cambridge Enterprise Limited, priority 2022, published 2025).

How the values were obtained:
genomic DNA = assay: Chemmap genome-wide mapping of biotinylated doxorubicin binding sites; design: species or system human; conditions: K562 cells
Method: (§1) Cell preparation. U-2 OS cells were detached using accutase and immediately quenched using complete culture media. U-2 OS and K562 suspension cells were harvested by centrifugation and fixed in 0.1% formaldehyde (Thermo Scientific, 28906) in PBS for 2 min at room temperature, followed by quenching with glycine to a final concentration of 75 mM. Fixed cells were collected by centrifugation at 600×g for 4 min, followed by resuspension in cold wash buffer (20 mM HEPES pH7.5, 150 mM NaCl and 0.5 mM spermidine (Sigma, S0266)) in nuclease-free water supplemented with a complete Protease Inhibitor, EDTA-free (Sigma, 11873580001). (Note: For Chemmap of G4 ligands NaCl was replaced by equivalent concentrations of KCl in all buffers to maintain G4 stability. For optimal results, the concentration of cells needs to be adjusted based on target abundance and relative affinity of the probes. We employed cells at 1500 cells/μL (JQ1-bio) and 6000 cells/μL (G4 ligands and biotinylated doxorubicin))
Probe-1st Ab complex assembly. Compound stock solution in DMSO was diluted to 10 μM in antibody buffer (2 mM EDTA, 0.1% BSA (Sigma, A8577), 0.05% digitonin (EMD Millipore, 300410) in wash buffer). For 5 samples, 20 μL probe solution (10 μM) and 16.7 μL anti-biotin (D5A7) Rabbit mAb (Cell Signaling Technology, 5597, concentration is ˜10 μM) were added to 200 μL antibody buffer and incubated on ice for 1 h to perform a complex at high concentration (probe in excess 1.2:1 to avoid non-specific antibody binding). […]
Bead capture. For 5 samples, 50 μL (JQ1-bio) or 75 μL (G4 ligands and biotinylated Doxorubicin) concanavalin A beads (Bangs Labs, BP531) were washed twice in 1 mL binding buffer (20 mM HEPES pH 7.5, 10 mM KCl, 1 mM CaCl2, 1 mM MnCl2 in nuclease-free water) and resuspended in 75 μL binding buffer. 100 µL of cell suspension were incubated with 10 μL pre-washed concanavalin A beads at 25° C. for 10 min at 600 rpm. Beads-bound cells were gently washed twice with wash buffer, before resuspending in 100 μL probe-1st Ab solution and incubating at 4° C. overnight at 600 rpm.
2nd Ab-Tn5 transposome complexes assembly. For 5 samples, 2.5 μL 2nd Ab (Antibodies-Online, ABIN101961, RRID:AB_10775589) and 5 μL pA-Tn5 were added to 200 μL Dig-300 buffer (20 mM HEPES pH 7.5, 300 mM NaCl, 0.5 mM spermidine, 0.01% digitonin in nuclease-free water supplemented with Complete Protease Inhibitor, EDTA-free) and incubated on ice for 1 h. 300 μL antibody buffer were added to the 2nd-Tn5 complexes solution. (2nd Ab-Tn5 complexes at a ratio of 2:1).
Tagmentation. Cells were washed 3× with 500 μL Dig-wash buffer (0.05% digitonin in wash buffer) and resuspended in 100 μL 2nd Ab-Tn5 transposome solution and incubated at 25° C. for 1 h at 600 rpm. […]

BRD4 [1] = target: T1, BRD4 (Homo sapiens, UniProt O60885); conditions: K562 cells; published data; cited from earlier work
T1 construct: U-2 OS and K562 suspension cells were harvested by centrifugation and fixed in 0.1% formaldehyde; endogenous in cells; host or cells: K562 (human leukaemia) and U-2 OS cells

BRD4 [2] = target: T1, BRD4; assay: Chemmap genome-wide mapping of JQ1 binding sites, compared with BRD4 CUT&Tag; conditions: 150,000 K562 cells; JQ1-bio probe
Method: BRD4 CUT&Tag was performed as described before (H.S. Kaya-Okur, et al. Nat. Protoc., 15 (2020) e23641). Briefly, cells were incubated with activated concanavalin A-coated magnetic beads (Bangs Labs, BP531). The bead-bound cells were permeabilized and incubated with anti-BRD4 (E2A7X) rabbit antibody (Cell Signalling Technology, 13440), followed by rabbit anti-mouse IgG antibody (Antibodies-Online, ABIN101961, RRID:AB_10775589). Diluted pA-Tn5 adapter complex was then added followed by the tagmentation reaction. Extracted DNA fragments were used for library preparation and Illumina sequencing.

DNA G-quadruplex [3] = assay: Chemmap genome-wide mapping of G4 ligand binding sites (PDS, PhenDC3); design: species or system human; conditions: K562 cells; biotinylated probes
Method: as §1
(§2) Probe-1st Ab complex assembly. Compound stock solution in DMSO was diluted to 10 μM in antibody buffer (2 mM EDTA, 0.1% BSA (Sigma, A8577), 0.05% digitonin (EMD Millipore, 300410) in wash buffer). […]

DNA G-quadruplex [4] = assay: PDS Chemmap after treatment of live K562 cells with unmodified PDS (competition); assay type: cell-based, human; conditions: unmodified PDS 4 μM for 3 hr
Method: as §1, §2

dsDNA = assay: FRET-melting assay; assay type: binding; conditions: 1 μM; negative control dsDNA; n=2
Method: 400 nM FAM-TAMRA dual-labelled oligonucleotides (Biomers) were annealed in assay buffer (60 mM potassium cacodylate, pH=7.4) at 95° C. for 5 min followed by gradually cooling to 20° C. A series of probe concentrations were prepared in a 8-well strip tube: 150 μL of 6 μM ligand in assay buffer was prepared as the initial concentration. Subsequent serial dilutions were made by adding 100 μL of probe solutions to 50 μL of assay buffer, resulting in 12 concentrations including a control (1% DMSO). 25 μL per solutions were transferred to 96-well plate, followed by adding 25 μL of annealed oligonucleotide solutions to each well. The plate was then sealed with an adhesive transparent cover and shaken gently for 10 min at room temperature. Measurements of restoring FAM signal were recorded on a Bio-Rad CFX96 Touch Real-Time PCR Detection System employing a temperature gradient from 25° C. to 95° C. at 0.5° C./min. Melting temperatures were determined by the first derivative maxima of relative fluorescence unit (RFU) value against […], and ΔTm was calculated by baseline correction of melting temperatures subtracting control group. A one-site binding model in GraphPad Prism 7 was utilised to fit FRET Tm curves. Mean was calculated from two replicates.

K562 cells = assay: Dox-bio1 Chemmap in Tucidinostat-treated K562 cells; assay type: cell-based, human; conditions: Tucidinostat 1 μM, 72 h
Source text: Mycoplasma-free human chronic myelogenous leukemia K562 cells (RRID:CVCL_0004) derived from a person were purchased from ATCC and cultured in RPMI 1640 (Gibco, 21875034) supplemented with 10% heat-inactivated fetal bovine serum (FBS, Gibco, A3840401). Human bone osteosarcoma epithelial U-2 OS cells (RRID:CVCL_0042) derived from a moderately differentiated sarcoma of the tibia of a person osteosarcoma were obtained from ATCC and cultured in DMEM (Gibco, 41966029) supplemented with 10% FBS. Both cell lines were grown in accordance with ENCODE cell culture protocols and periodically tested for mycoplasma contamination and identity confirmed by short tandem repeat (STR) typing. HDAC inhibitors (HDACi) were prepared at 10 mM as stock solution in DMSO. Cells were treated with HDACi dissolved to 1 μM final concentration or an equal concentration of vehicle (0.1% DMSO) for 72 hs.
Cell preparation. U-2 OS cells were detached using accutase and immediately quenched using complete culture media. U-2 OS and K562 suspension cells were harvested by centrifugation and fixed in 0.1% formaldehyde (Thermo Scientific, 28906) in PBS for 2 min at room temperature, followed by quenching with glycine to a final concentration of 75 mM. […]

Structure (SMILES): COc1cccc2c1C(=O)c1c(O)c3c(c(O)c1C2=O)C[C@@](O)(C(=O)COC(=O)CCCC(=O)NCCOCCOCCOCCOCCNC(=O)CCCC[C@H]1SC[C@H]2NC(=O)N[C@H]21)C[C@@H]3O[C@H]1C[C@H](N)[C@H](O)[C@H](C)O1 [Dox-bio1]
- material recovered compared to other tested probes (genomic DNA; 200 nM, same condition): up to 30 fold
- consensus peaks for both Dox-bio1 and ATAC-seq (genomic DNA): 12,896
- peaks located in open chromatin regions mapped by ATAC-seq (genomic DNA): 95%
- high confidence Dox-bio1 binding sites (genomic DNA; depending on the probe concentration): around 14k

Structure (SMILES): Cc1sc2c(c1C)C(c1ccc(Cl)cc1)=N[C@@H](CC(=O)NCCCNC(=O)OC1CC/C=C\CCC1)c1nnc(C)n1-2 (stereo partly shown) [JQ1-TCO]
- signal averaged at BRD4 CUT&Tag high confidence loci (BRD4 [1]): close to the baseline

Structure (SMILES): Cc1sc2c(c1C)C(c1ccc(Cl)cc1)=N[C@@H](CC(=O)NCCOCCOCCNC(=O)CCCC[C@@H]1SC[C@@H]3NC(=O)N[C@@H]31)c1nnc(C)n1-2 [JQ1-bio]
- JQ1 binding sites observed in each experiment (BRD4 [2]): around 10,000

Structure (SMILES): NCCOc1cc(C(=O)Nc2cc(OCCN)c3ccccc3n2)nc(C(=O)Nc2cc(OCCN)c3ccccc3n2)c1 [PDS, Pyridostatin]
- overlap of high confidence binding sites with G4-seq data (OQS) (DNA G-quadruplex [3]): ~89%
- PDS Chemmap sites lost compared to untreated (DNA G-quadruplex [4]): ~6000
- PDS Chemmap sites lost compared to untreated (percent) (DNA G-quadruplex [4]): 60%
- ΔTm on dsDNA (dsDNA): 0 °C

Structure (SMILES): NCCOc1cc(NC(=O)c2cc(OCCNC(=O)CCOCCOCCOCCOCCNC(=O)CCCC[C@@H]3SC[C@@H]4NC(=O)N[C@@H]43)cc(C(=O)Nc3cc(OCCN)c4ccccc4n3)n2)nc2ccccc12 [PDS-bio]
- ΔTm on dsDNA (dsDNA): 0 °C

Structure (SMILES): C[n+]1cc(NC(=O)c2ccc3ccc4c(NCCCCNC(=O)CCc5cn(CCOCCOCCOCCNC(=O)CCCC[C@@H]6SC[C@@H]7NC(=O)N[C@@H]76)nn5)cc(C(=O)Nc5cc6ccccc6[n+](C)c5)nc4c3n2)cc2ccccc21 [PhenDC3-bio]
- ΔTm on dsDNA (dsDNA): 0 °C

Structure (SMILES): C[n+]1cc(NC(=O)c2ccc3ccc4ccc(C(=O)Nc5cc6ccccc6[n+](C)c5)nc4c3n2)cc2ccccc21 [PhenDC3]
- overlap of high confidence binding sites with G4-seq data (OQS) (DNA G-quadruplex [3]): ~88%
- ΔTm on dsDNA (dsDNA): 0 °C

Structure (SMILES): Nc1cc(F)ccc1NC(=O)c1ccc(CNC(=O)/C=C/c2cccnc2)cc1 [Tucidinostat]
- effect on doxorubicin binding (differential binding analysis) (K562 cells): enhances the binding of doxorubicin
- Dox-bio1 binding sites within initial open chromatin region (K562 cells; 95% in vehicle group): 42%
